Assay results as given in PMC6277767, “Broad and Region-Specific Impacts of the Synthetic Cannabinoid CP 55,940 in Adolescent and Adult Female Mouse Brains” (Frontiers in Molecular Neuroscience, 2018).

Test system: CD1 female mouse brain lipidome
Experiment: Brain-region lipid levels (HPLC/MS/MS lipidomics) 2 h after single i.p. 3 mg/kg CP 55,940 vs vehicle
Assay type: in vivo
Conditions: hippocampus
Experimental: The Bloomington Institutional Animal Care and Use Committee of Indiana University reviewed and approved the animal procedures. Female mice from the CD1 strain were utilized to match our study examining THC’s effects on the brain lipidome ([Leishman et al., 2018]). Mice were given a single i.p. injection of either 3 mg/kg CP or 1:1:18 cremophor:ethanol:saline vehicle (please refer to the section “3 mg/kg CP Is Relevant for Synthetic Cannabinoid Abuse and Has Stronger Effects on the Female Mouse Brain Lipidome During Adolescence” for a justification of dose and use of female mice). Three different age groups were given injections: PND 35 and PND 50 adolescents, and adult mice (PND 113). At least eight mice in each age group received CP and at least eight received vehicle. Matching the THC study time course ([Leishman et al., 2018]), mice were sacrificed via rapid decapitation 2 h after injection. Brains were immediately removed and flash-frozen in liquid nitrogen, and then stored at -80°C until dissections were performed. Brains were dissected on an ice-cold dissection plate into the following regions: STR, HIPP, CER, THAL, CTX, HYP, MID, and STEM. These abbreviations for these brain areas will be used exclusively when discussing the results generated by these specific dissections. Each dissected area was immediately placed in liquid nitrogen and then stored at -80°C until used for lipid extraction.
Tissue extracts were performed as previously described ([Bradshaw et al., 2006]; [Stuart et al., 2013]; [Raboune et al., 2014]; [Leishman et al., 2016a],[b], [2017], [2018]). First, samples were shock frozen in liquid nitrogen, weighed, and transferred to a centrifuge tube. The mass of the largest sample was multiplied by 50 to determine how many milliliters of HPLC-grade methanol (Fisher, Fair Lawn, NJ, United States) to add. Then, samples were spiked with 500 pmol deuterium-labeled NAGly (d8NAGly; Cayman Chemical, Ann Arbor, MI, United States). Samples were placed on ice in darkness for 2 h then individually homogenized and centrifuged at 19,000 × g for 20 min at 20°C. Supernatants were diluted with HPLC water (purified in house) to make a solution of 75% water, 25% supernatant. Lipids were partially purified on C18 solid phase extraction columns (Agilent, Palo Alto, CA, United States). A series of four elutions with 1.5 mL of 60%, 75%, 85%, and 100% methanol were collected ([Stuart et al., 2013]; [Leishman et al., 2016a],[b], [2018]).
As previously described ([Bradshaw et al., 2006]; [Tan et al., 2006]; [Smoum et al., 2010]; [Stuart et al., 2013]; [Tortoriello et al., 2013]; [Raboune et al., 2014]; [Leishman et al., 2016a],[b], [2017], [2018]), samples were analyzed using an Applied Biosystems API 3000 triple quadrupole mass spectrometer with electrospray ionization (Foster City, CA, United States). Using an Agilent XDB-C18 reversed phase analytical column and optimized mobile phase gradients, 20 μL from each elution were chromatographed. Two Shimadzu 10ADvp pumps (Columbia, MD, United States) provided the pressure for gradient elution. Mobile phase A: 20% methanol, 80% water (v/v) and 1 mM ammonium acetate (Sigma, St. Louis, MO, United States). Mobile phase B: 100% methanol, 1 mM ammonium acetate. Every method run began with 0% mobile phase B, reached 100% mobile phase B flowing at 0.2 mL/min, and gradually returned to 0% mobile phase B.
This screening library will be referred to as the lipidome when discussing data from this study. HPLC/MS/MS data were analyzed using Analyst software (Applied Biosystems) ([Bradshaw et al., 2006]; [Tan et al., 2006]; [Stuart et al., 2013]; [Tortoriello et al., 2013]; [Raboune et al., 2014]; [Leishman et al., 2016a],[b], [2017], [2018]). Chromatograms (Supplementary Figure 3) were generated by determining the retention time of analytes from the analytical column with a [M-1] or [M+1] parent peak and a fragmentation peak corresponding to the programmed values. […]

[1] = PND 50, 3 mg/kg CP 55,940 vs Veh
[2] = PND 50 female mice, 3mg/kg CP 55,940, mean

CCCCCCC(C)(C)c1ccc([C@@H]2C[C@H](O)CC[C@H]2CCCO)c(O)c1 [CP 55,940]
Linoleic acid, Magnitude (x Veh level) [1]: 0.73 x Veh level | N-arachidonoyl alanine Magnitude (x Veh level) [1]: 0.71 x Veh level | N-arachidonoyl alanine, Direction (relative to Veh) [1]: ↓ | N-arachidonoyl ethanolamine, Direction (relative to Veh) [1]: ↓ | N-arachidonoyl ethanolamine, Magnitude (x Veh level) [1]: 0.64 x Veh level | N-arachidonoyl glycine Direction (relative to Veh) [1]: ↓ | N-arachidonoyl glycine Magnitude (x Veh level) [1]: 0.52 x Veh level | N-arachidonoyl serine Direction (relative to Veh) [1]: ↓ | N-arachidonoyl serine Magnitude (x Veh level) [1]: 0.51 x Veh level | N-arachidonoyl taurine Direction (relative to Veh) [1]: ↓ | N-arachidonoyl taurine Magnitude (x Veh level) [1]: 0.69 x Veh level | N-arachidonoyl tyrosine, Direction (relative to Veh) [1]: ↑ | N-arachidonoyl tyrosine, Magnitude (x Veh level) [1]: 1.38 x Veh level | N-docosahexaenoyl ethanolamine, Direction (relative to Veh) [1]: ↓ | N-docosahexaenoyl ethanolamine, Magnitude (x Veh level) [1]: 0.73 x Veh level | N-linoleoyl ethanolamine, Direction (relative to Veh) [1]: ↓ | N-linoleoyl ethanolamine, Magnitude (x Veh level) [1]: 0.65 x Veh level | N-linoleoyl serine Direction (relative to Veh) [1]: ↑ | N-linoleoyl serine Magnitude (x Veh level) [1]: 1.32 x Veh level | N-oleoyl leucine Direction (relative to Veh) [1]: ↓ | N-oleoyl leucine Magnitude (x Veh level) [1]: 0.77 x Veh level | N-oleoyl serine, Direction (relative to Veh) [1]: ↑ | N-oleoyl serine, Magnitude (x Veh level) [1]: 1.27 x Veh level | PGE2 Direction (relative to Veh) [1]: ↑ | PGE2 Magnitude (x Veh level) [1]: 1.15 x Veh level | PGF2α Direction (relative to Veh) [1]: ↑ | PGF2α Magnitude (x Veh level) [1]: 1.22 x Veh level | 2-arachidonoyl glycerol level [2]: 2.77E-09 | 2-linoleoyl glycerol level [2]: 1.81E-10 | 2-oleoyl glycerol level [2]: 1.71E-09 | 2-palmitoyl glycerol level [2]: 2.49E-10 | 6-ketoPGF1α level [2]: 6.15E-11 | 11-OH-THC level [2]: BDL | 11-nor-9-carboxyTHC level [2]: BDL | Arachidonic acid level [2]: 1.73E-09 | Cannabidiol level [2]: BDL | Linoleic acid level [2]: 5.21E-10 | N-arachidonoyl GABA level [2]: 2.39E-11 | N-arachidonoyl alanine level [2]: 1.94E-12 | N-arachidonoyl dopamine level [2]: BDL | N-arachidonoyl ethanolamine level [2]: 2.58E-11 | N-arachidonoyl glycine level [2]: 4.78E-13 | N-arachidonoyl proline level [2]: BDL | N-arachidonoyl serine level [2]: 5.36E-13 | N-arachidonoyl taurine level [2]: 8.7E-11 | N-arachidonoyl tryptophan level [2]: BDL | N-arachidonoyl tyrosine level [2]: 2.3E-12 | N-docosahexaenoyl ethanolamine level [2]: 1.92E-11 | N-docosahexaenoyl glycine level [2]: 5.66E-14 | N-docosahexaenoyl methionine level [2]: BDL | N-docosahexaenoyl proline level [2]: BDL | N-docosahexaenoyl tryptophan level [2]: BDL | N-docosahexaenoyl valine level [2]: BDL | N-linoleoyl ethanolamine level [2]: 2.31E-11 | N-linoleoyl glycine level [2]: 8.35E-14 | N-linoleoyl methionine level [2]: BDL | N-linoleoyl proline level [2]: BDL | N-linoleoyl serine level [2]: 7.96E-11 | N-linoleoyl tryptophan level [2]: BDL | N-linoleoyl valine level [2]: BDL | N-nervonoyl valine level [2]: BDL | N-oleoyl GABA level [2]: 1.53E-11 | N-oleoyl alanine level [2]: 2.17E-12 | N-oleoyl dopamine level [2]: BDL | N-oleoyl ethanolamine level [2]: 8.7E-11 | N-oleoyl glycine level [2]: 1.25E-13 | N-oleoyl leucine level [2]: 7.72E-13 | N-oleoyl phenylalanine level [2]: 1.52E-13 | N-oleoyl proline level [2]: BDL | N-oleoyl serine level [2]: 4.19E-10 | N-oleoyl tryptophan level [2]: BDL | N-palmitoyl GABA level [2]: 1.72E-11 | N-palmitoyl alanine level [2]: 2.35E-12 | N-palmitoyl ethanolamine level [2]: 2.9E-11 | N-palmitoyl glycine level [2]: 5.47E-12 | N-palmitoyl leucine level [2]: 1.17E-12 | N-palmitoyl methionine level [2]: 9.9E-12 | N-palmitoyl phenylalanine level [2]: 9.31E-14 | N-palmitoyl proline level [2]: BDL | N-palmitoyl serine level [2]: 1.51E-11 | N-palmitoyl tryptophan level [2]: BDL | N-palmitoyl tyrosine level [2]: 9.92E-13 | N-stearoyl GABA level [2]: 1.36E-11 | N-stearoyl alanine level [2]: 2.21E-12 | N-stearoyl ethanolamine level [2]: 1.21E-11 | N-stearoyl glycine level [2]: 2.09E-12 | N-stearoyl leucine level [2]: 1.45E-12 | N-stearoyl phenylalanine level [2]: 9.22E-14 | N-stearoyl proline level [2]: BDL | N-stearoyl serine level [2]: 3.94E-11 | N-stearoyl tryptophan level [2]: BDL | Oleic acid level [2]: 5.52E-10 | PGE2 level [2]: 5.28E-10 | PGF2α level [2]: 3.99E-10 | PhosphoLEA level [2]: 9.47E-12 | THC level [2]: BDL | 2-arachidonoyl glycerol level, Mean (adult, 3 mg/kg CP 55,940): 2.63E-09 | 2-linoleoyl glycerol level, Mean (adult, 3 mg/kg CP 55,940): 1.64E-10 | 2-linoleoyl glycerol: Direction (relative to Veh) (adult, 3 mg/kg CP 55,940): ↓ | 2-linoleoyl glycerol: Magnitude (x Veh level) (adult, 3 mg/kg CP 55,940): 0.74 x Veh level | 2-oleoyl glycerol level, Mean (adult, 3 mg/kg CP 55,940): 1.58E-09 | 2-palmitoyl glycerol level, Mean (adult, 3 mg/kg CP 55,940): 1.43E-10
